What all share (test): DTP human tumour cell line panel, 48 h
Test [1] deals with NCI-H460 lung.
Test [2] has as its system MDA-MB-231 breast.
The subject of test [3] is SNB-75 CNS.
For test [4], the system named is NCI/ADR-RES ovarian.
For test [5], the system named is U251 CNS.
Test [6] deals with NCI-H23 lung.
For test [7], the system named is HCT-116 colon.
Test [8] concerns CCRF-CEM leukemia.
Test [9] deals with OVCAR-8 ovarian.
Test [10] relates to SN12C renal.
The subject of test [11] is SK-OV-3 ovarian.
Test [12] relates to EKVX NSCLC.
For test [13], the system named is ACHN renal.
Test [14] concerns RPMI-8226 leukemia.
In test [15] the test system is LOX IMVI melanoma.
The test system of test [16] is HOP-92 NSCLC.

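A five-concentration, 48-hour dose response in 96-well plates underlies each endpoint, interpolated linearly between surrounding concentrations. GI50: concentration for 50% inhibition of growth. TGI marks complete inhibition of growth.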

With `CCC(=O)C1(N2CCOCC2)CCN(CCCC(=O)c2ccc(F)cc2)CC1`, the TGI in [1], in [2], in test [3], in [4], in test [5] and in [6] was > 100 µM throughout. Also, the TGI in test [7], in [8], in test [9], in test [10], in test [11] and in [12] was > 100 µM throughout. For the same compound, the TGI in test [13], in test [14] and in test [15] was > 100 µM throughout.

For the compound `O=c1c(-c2ccccc2)c2oc(c1-c1ccccc1)CS(=O)(=O)CCC2`, the TGI is > 100 µM in test [1]; > 100 µM in test [16]; 38.9 µM in [6]; 26.3 µM in [7]; > 100 µM in [8]; > 100 µM in [9]. The TGI in test [10] was 44.2 µM; in [11] it was > 100 µM; in test [12], > 100 µM; in test [13], > 100 µM; in [14], > 100 µM; in [15], 45.8 µM.

For the compound `CC1CN(c2ccc(Cl)cc2)CC(C)(C)OC(=O)O1` (stereo not drawn), the TGI in [1], in [16], in test [3], in test [5], in [6] and in test [7] was > 100 µM throughout. Also, the TGI in test [8], in [9], in [10], in test [11], in test [12] and in test [13] was > 100 µM in each case. Moreover, the TGI in test [14] and in [15] was > 100 µM in each case.

Regarding `Cn1c2c(c3ccccc31)CCN1OCC=C[C@@H](C(=O)O)[C@@H]21`, the TGI in [1], in test [2], in test [16], in test [3], in test [4] and in test [5] was > 100 µM in each case. Besides, the TGI in [7], in test [9], in [10], in [11], in test [12] and in test [13] was > 100 µM throughout. The TGI in test [15] is > 100 µM.

As for `CCOC(=O)C[C@@H](C)[C@]1(C(=O)OC)CCCC1=O`, the TGI is > 100 µM in [1]; > 100 µM in test [16]; > 100 µM in test [3]; > 100 µM in test [5]; > 100 µM in [6]; > 62.6 µM in [7]. In addition, the TGI in test [8], in test [9], in test [10], in [11], in test [12] and in [13] was > 100 µM throughout. Also, the TGI in test [14] is > 71.4 µM; in [15], > 61.5 µM.

`Cc1ccc2[nH]c3c(C)c4c(c(C)c3c2c1)CN(C)C=C4`: the TGI in test [1] stood at 12 µM; in test [16], 4.74 µM; in [3], 2.27 µM; in [5], 1.09 µM; in test [6], 2.3 µM; in [7] it was 10.6 µM. Further, the TGI in test [8] came out at 22 µM; in [9], 9.01 µM; in test [10] it was 0.682 µM; in test [11], 7.04 µM; in test [12], 10 µM; in test [13] it was 20.5 µM. The TGI in [14] was determined as 35.5 µM; in test [15], 17 µM. For the same compound, the GI50 in [8] was 2.33 µM.

As to `O=C1Oc2ccccc2C(=O)/C1=C/N1C(=O)/C(=C/c2ccc3c(c2)OCO3)SC1=S`, the TGI was 32.4 µM in test [1]; 44 µM in [2]; 19.2 µM in test [3]; 48.4 µM in [4]; 15 µM in test [5]; 30.5 µM in test [6]. The TGI was > 51.2 µM in test [7]; > 61.3 µM in [8]; 40.9 µM in [9]; 51.6 µM in test [10]; 38.5 µM in [11]; > 100 µM in test [12]. The TGI in test [13] is 28.1 µM; in test [14], 38.3 µM; in test [15], > 58.8 µM.

Turning to `CC(=O)NC(CCCCN(Cc1ccccc1)C(=O)NCCCl)C(=O)NCc1ccccc1` (stereo not drawn), the TGI in [1], in test [16], in [3], in test [5], in test [6] and in test [7] was > 100 µM throughout. The TGI in test [8], in test [9], in test [10], in test [12], in test [13] and in test [14] was > 100 µM each time.

For `CCOC(=O)[C@@H]1OC(c2ccccc2)O[C@H]1C(=O)OCC`, the TGI in [2], in [16], in test [3], in test [4], in [5] and in test [6] was > 100 µM in each case. In addition, the TGI in test [7], in [8], in [9], in [10], in [11] and in [12] was > 100 µM throughout. For the same compound, the TGI in [13], in test [14] and in test [15] was > 100 µM throughout.

For `Cc1ccc2nc(N/N=C/c3ccc(C)s3)cc(C)c2c1`, the TGI in [2] is 31.8 µM; in [16], 21 µM; in test [4] it was 47.2 µM; in test [5], 27.6 µM; in test [6] it was 22 µM; in [7], 12.3 µM. For the same compound, the TGI in [9] turned out to be 31.3 µM; in test [10] it was 25.3 µM; in [11], 32.7 µM; in [12], 26.1 µM; in test [13], 24.1 µM; in [14] it was 56.6 µM. Further, in test [15], the TGI was found to be 14.4 µM.

The term TGI denotes the concentration at which net growth stops. A low value points to more potent growth arrest. As usually defined, the GI50 is the concentration giving 50% growth inhibition.

Values taken from PubChem BioAssay (NCI).
